Measured values reported in paper PMC3169413 (Acta Crystallographica Section F: Structural Biology and …, 2011).

Columns and labels:
[1] = target: FumC (fumarate hydratase) from R. prowazekii (Rickettsia prowazekii, UniProt Q9ZCQ4); conditions: active site; product analog; from crystallization precipitant, 1.4 M sodium malonate pH 6.0, 289 K; one malonate per protomer
crystal structure = target: the molecule itself; assay: crystal structure

Row | Molecule | X-ray crystal structure, 2.4 A [1] | binding result (crystal structure)
1 | O=C(O)CC(=O)O [malonate] | The R. prowazekii FumC structure was determined in complex with the product analog malonate. | 
2 | fumarate hydratase (FumC) from Rickettsia prowazekii strain Madrid E (enzyme, also called fumarase; class II fumarate hydratase) MKNYRIESDSFGEIQIEEKFYWGAQTQRSLNNFKISKQKMPKILIRALAILKKCAAQVNYEFGDLEYKIATSIDKAIDRILAGEFEDNFPLVVWQTGSGTQTNMNMNEVIASIANEELTGKKGGKFPVHPNDHVNKGQSSNDSFPTAMHIATVLATKQQLIPALNNLLTYLQDKSKDWDKIIKIGRTHLQDATPLTLKQEFSGYITQIEYALERIEDALKKVYLLAQGGTAVGTGINSKIGFDIKFAQKVAEFTQQPFKTAPNKFESLAAHDALVEFSGTLNTIAVSLMKIANDIRLLGSGPRCGLGELHLPENEPGSSIMPGKVNPTQVEALTMVCTQVMGNHVTVTIAGSNGHLELNVFKPVIIYNILQSIELLSDSVNSFVTHCVKGLEPNIARINTLRDKSLMLVTVLNPHIGYDNAAKIAKEAHKYGITLKEAAKKLNFLSEEEFDKIVVPEKMIS |  | binds
